Data from article PMC8929364, “Metopimazine is primarily metabolized by a liver amidase in humans” (Pharmacology Research & Perspectives, 2021).
“And” between values parts separate entries of the source, which are not always exact repeats. Identical values can stand only once.

Legend:
microsomal CYP enzymes = experiment: HLM incubation of MPZ with CYP inhibitors; details: HLM 0.5 mg/ml, 60 min; for effect of inhibitor on MPZS formation from MPZ / effect of inhibitor on MPZH formation from MPZ (peak area ratio, qualitative): 1 mM ABT; for effect of inhibitor on MPZS formation from MPZ: itraconazole 2.5 µM; for effect of inhibitor on MPZH formation from MPZ (peak area ratio, qualitative): quinidine 1 µM
Description: Initially, two sets of incubations were conducted with HLM (0.5 mg/ml microsomal protein), 1 and 10 μM MPZ, 100 mM KPi buffer (pH 7.4) where one set was in the presence and the other set was in the absence of 1 mM ABT, a non‐specific CYP inhibitor for 60 min. This allowed the assessment of total CYP contribution for MPZ metabolism. Then, CYP‐specific chemical inhibitors were used to assess the contribution of individual major CYP‐isoforms where HLM were incubated with 1 or 10 μM MPZ in the presence and in the absence of each CYP specific inhibitor at 37°C for 60 min. […] Parallel incubation with seven CYP specific probe substrates (phenacetin for CYP1A2, bupropion for CYP2B6, paclitaxel for CYP2C8, diclofenac for CYP2C9, S‐mephenytoin for CYP2C19, dextromethorphan for CYP2D6 and midazolam for CYP3A4/5) were included in as positive controls. For negative control reaction, MPZ was incubated at 37°C in duplicate in a reaction mixture devoid of NADPH. All other procedures were the same as described previously.
LC separation conditions were developed for MPZ and its metabolites (MPZA and MPZS), 7‐hydroxycoumarin, each metabolite of CYP probe substrate, benzydamine N‐oxide, and phthalazine. The LC–MS/MS system consisted of a Shimadzu Nexera X2 LC‐30 UPLC system (Shimadzu Corporation), and an API 4000 triple quadrupole mass spectrometer (SCIEX) was used for analysis. All analytes were analyzed using electrospray ionization (ESI) in positive ion mode except for 7‐EC, which used negative ion mode. The LC–MS/MS system was controlled by Analyst software (version 1.6.1, SCIEX).
For each analytical method, a calibration curve was generated for the quantification of MPZ and its two metabolites (MPZA and MPZS). […] PAR was also used for all positive control compounds.

[1] = test system: human liver microsomal amidase; experiment: Incubations with heat-treated HLM for microsomal hydrolase/amidase activity, with and without BNPP; assay type: in vitro ADME; details: 10 µM MPZ, HLM, 60 min
Description: Prior to the reaction for amidase activity, the reaction mixture containing KPi buffer (pH 7.4, 8.4, or 9.4) and HLM was pre‐incubated at 50°C for 5 min to inactivate CYP and FMO activities in HLM. The mixture was placed on ice to cool down. An aliquot was taken out which was considered as t = 0 min incubation. Then 10 µM MPZ was added into the remaining mixture and incubated at 37°C on an orbital shaker for 60 min. A parallel set of incubations was conducted with 10 µM MPZ in the presence at 2 and 16 µM, of BNPP (a known inhibitor of amidase). All reactions were in triplicate. The total percentage of organic solvent in the incubation mixture was ≤0.1%. The reactions were terminated by the addition of chilled acetonitrile: methanol, 90:10, (v/v). The samples were vortex‐mixed and stored at ≤−70°C and were subjected analyzed by LC–MS/MS.

[2] = Clinical study NG100-101: plasma pharmacokinetics of metopimazine and metabolites after a single oral 60 mg dose; assay type: in vivo, healthy adult subjects (human); details: for % Drug‐related material MPZS: based on AUClast
Description: The clinical study was conducted at Biotrial Rennes, in accordance with the Declaration of Helsinki. The study (NG100‐101) was a double‐blind, placebo‐ controlled, ascending single‐ and multiple‐dose study of the safety, tolerability, and pharmacokinetics of metopimazine administered orally to healthy adult subjects. The study protocol, informed consent form, and appropriate related documents were approved by the institutional review board, and all subjects provided written informed consent prior to participation in the study. […] In the morning, after at least 10 h of fasting overnight, eight healthy adult subjects (male or female aged 18 to 45), were orally administered metopimazine (or a matching placebo). […] Blood samples were collected at the following time points: predose and 0.25, 0.5, 0.75, 1, 1.25, 1.5, 2, 3, 4, 6, 8, 12, 18, and 24 h postdose; plasma samples were obtained by centrifugation of the blood samples. A comprehensive safety and pharmacokinetic analysis was performed for each cohort for the SAD and MAD parts of the study and will be presented elsewhere. A fit‐for‐purpose discovery method was used to analyze 4 subjects from the highest single dosed cohort for the presence of metabolites. Plasma concentrations of metopimazine, metopimazine acid and metopimazine sulfoxide were quantified using LC–MS/MS methods. Venous blood samples (6 ml) for the determination of plasma concentrations of MPZ and metabolites (MPZA and MPZS) were drawn by direct venipuncture or via an intravenous catheter into K2EDTA Vacutainer® tubes. It was important to avoid hemolysis during blood collection. After collection, the blood samples were centrifuged within 60 min, at 3000 rotations per minute for 10 min at 5°C. The resulting plasma was separated into 2 equal aliquots of 1000 µl (aliquots A & B) and transferred to polypropylene tubes, which were labeled, frozen within 120 min of blood collection and stored at –70°C until required for bioanalysis. Immediately prior to bioanalysis, samples were thawed and a 200 µl aliquots were removed and analytes extracted using acetonitrile protein precipitation. The extracted samples were analyzed twice, once for quantification of MPZ and MPZA and again for MPZS quantification as described below. An MRM LC–MS/MS method was developed for MPZ and metopimazine acid (MPZA) in rat, dog, and human plasma. The method was run in reverse phase in positive ion mode. […] D6‐isotopically labeled internal standards were used for each analyte. The following m/z transitions were monitored: metopimazine 446.3 → 141.1 and metopimazine acid 447.2 → 142.1. […] An MRM LC–MS/MS method was developed to look for metopimazine sulfoxide (MPZS) in human plasma. The method was run in reverse phase in positive ion mode. The system was identical to what was described above except that a slightly longer column was used, a Supelco Discovery HS F5 100 × 4.0 mm (3 µm) column (Sigma‐Aldrich). A D6‐isotopically labeled internal standards was used for MPS and the m/z transition monitored was 462.3 → 98.1. A calibration curve was generated for the quantification of MPZS in human plasma. Noncompartmental Pharmacokinetics analysis was performed in Phoenix 64 Winnonlin version 8.1.

[3] = Incubation of MPZ with pooled human liver microsomes (disappearance, metabolite formation); assay type: in vitro ADME; details: metopimazine incubation in human liver microsomes, full scan LC–MS
Description: To conduct the metabolic incubation in liver microsomes in the linear range, protein concentration and the reaction time were optimized.
PAR was also used for all positive control compounds.
The degree of disappearance of each analyte was evaluated by comparing the PAR of analyte to IS or concentration in different sampling time points to the PAR of time zero, (t = 0, 100%). The percent of parent remaining values were calculated according to the following equation: %parentremaining=(meanconcentrationorPARateachsamplingtimepoint/meanconcentrationorPARoftimezero)×100

CYP3A4 = target: T1, CYP3A4 (Homo sapiens, UniProt P08684); experiment: Incubation of MPZ with recombinant CYP isoforms: CYP3A4; assay type: in vitro ADME; details: 1 µM MPZ, 60 min
T1 construct: purchased Corning Inc
T1 sequence (P08684 whole entry, canonical isoform): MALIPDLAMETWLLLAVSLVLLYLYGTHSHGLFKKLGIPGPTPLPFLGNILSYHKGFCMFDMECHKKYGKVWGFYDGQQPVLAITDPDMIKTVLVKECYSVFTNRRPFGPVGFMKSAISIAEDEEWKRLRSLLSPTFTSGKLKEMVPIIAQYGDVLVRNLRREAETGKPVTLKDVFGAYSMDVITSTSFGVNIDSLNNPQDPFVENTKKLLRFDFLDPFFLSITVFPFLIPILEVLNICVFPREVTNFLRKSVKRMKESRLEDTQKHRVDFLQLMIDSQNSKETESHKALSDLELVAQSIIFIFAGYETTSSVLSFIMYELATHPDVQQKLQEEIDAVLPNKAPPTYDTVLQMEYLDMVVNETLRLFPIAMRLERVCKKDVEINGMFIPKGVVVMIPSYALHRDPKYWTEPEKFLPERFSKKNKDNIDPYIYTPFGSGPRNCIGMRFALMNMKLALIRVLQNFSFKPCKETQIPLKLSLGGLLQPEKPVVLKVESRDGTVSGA
Source text: (§1) All other procedures were the same as described previously.

CYP3A5 = target: T2, CYP3A5 (Homo sapiens, UniProt P20815); experiment: Incubation of MPZ with recombinant CYP isoforms: CYP3A5; assay type: in vitro ADME; details: 1 µM MPZ, 60 min
T2 construct: purchased Corning Inc
T2 sequence (P20815 whole entry, canonical isoform): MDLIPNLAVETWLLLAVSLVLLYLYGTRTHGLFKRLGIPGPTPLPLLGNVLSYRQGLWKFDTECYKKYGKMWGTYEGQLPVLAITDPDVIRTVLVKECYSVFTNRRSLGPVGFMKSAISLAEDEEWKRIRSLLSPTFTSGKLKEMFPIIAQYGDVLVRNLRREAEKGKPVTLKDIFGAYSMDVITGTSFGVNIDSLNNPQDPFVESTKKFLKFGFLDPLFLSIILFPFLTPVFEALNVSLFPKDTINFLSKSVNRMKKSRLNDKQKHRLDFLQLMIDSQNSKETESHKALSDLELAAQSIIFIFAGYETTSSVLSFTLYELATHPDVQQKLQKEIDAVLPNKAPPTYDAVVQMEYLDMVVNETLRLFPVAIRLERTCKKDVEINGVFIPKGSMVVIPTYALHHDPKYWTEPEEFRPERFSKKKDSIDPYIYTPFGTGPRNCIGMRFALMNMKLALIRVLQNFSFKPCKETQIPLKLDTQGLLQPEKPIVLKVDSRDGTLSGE
Source text: as §1

microsomal FMOs = experiment: Incubation of MPZ with HLM for FMO, with and without methimazole; assay type: in vitro ADME, human; details: 1 mM methimazole, pH 8.4, NADPH, 60 min
Description: MPZ, at 1.0 and 10.0 µM, was incubated with HLM or HKM to determine the contribution of microsomal FMOs on the metabolism of MPZ.
A reaction mixture containing KPi buffer (pH 8.4), HLM or HKM (0.5 mg/ml protein) and MPZ (1.0 and 10.0 µM) was pre‐incubated for 3–5 min at 37°C. The reaction was initiated by the addition of NADPH into the reaction mixture. The reaction was conducted for 0 and 60 min. A positive control (benzydamine, 100 µM) was incubated in duplicate for 0 and 20 min. Parallel incubation was conducted by adding 1 mM methimazole, a non‐specific FMO inhibitor, under identical conditions. Heat‐inactivated microsomes (50°C for at least 5 min) was incubated under identical conditions negative control. All other procedures were the same as described previously.

[4] = 4 subjects, single oral 60 mg MPZ dose
[5] = plasma, individual subjects, single oral 60 mg MPZ dose

## Nn1nnc2ccccc21 [1‐ABT, 1‐aminobenzotriazole]
Microsomal CYP enzymes; 1 mM ABT or CYP-isoform specific inhibitors
  effect of inhibitor on MPZA formation from MPZ: no effect on MPZA
Microsomal CYP enzymes
  effect of inhibitor on MPZS formation from MPZ: inhibited the formation of MPZS
  effect of inhibitor on MPZH formation from MPZ (peak area ratio, qualitative): inhibited

## O=[N+]([O-])c1ccc(OP(=O)(O)Oc2ccc([N+](=O)[O-])cc2)cc1 [BNPP, bis‐p‐nitrophenyl phosphate]
[1]; 2 μM BNPP, even at the highest pH
  inhibition of MPZA formation: at least 97%
[1]; 16 μM BNPP, all three pH values (7.4, 8.4, 9.4)
  inhibition of MPZA formation: > 99%

## CS(=O)(=O)c1ccc2c(c1)N(CCCN1CCC(C(N)=O)CC1)c1ccccc1[S+]2[O-] (stereo not shown) [MPZS, metopimazine sulfoxide]
[2]; [4]
  quantifiability in plasma at late time points: not quantifiable by 12 h
  time of first appearance in plasma: 30 to 45 min
[2]; individual subjects, single 60 mg dose
  % Drug‐related material MPZS: 0.4% and 0.9% and 0.5% and 0.8%
[2]; mean of 4 subjects, single 60 mg dose
  % Drug‐related material MPZS: 0.7%
[2]; both sexes, human, plasma, po, 60 mg, plasma, mean of 4 subjects, single oral 60 mg MPZ dose, read-out: MPZS AUClast
  AUC(0-t): 15.8 ng·h/mL
[2]; both sexes, human, plasma, po, 60 mg, plasma, mean of 4 subjects, single oral 60 mg MPZ dose, read-out: MPZS C max
  Cmax: 4.9 ng/mL
[2]; [5]
  MPZS AUClast: 7.6 ng‐h/ml and 25.5 ng‐h/ml and 10.0 ng‐h/ml and 20.1 ng‐h/ml
  MPZS C max: 1.6 ng/mL and 10.2 ng/mL and 3.1 ng/mL and 4.6 ng/mL
  MPZS T max: 4 h and 1.25 h and 1 h
[2]; rough estimate based on AUClast, single 60 mg dose
  percent of total circulating drug‐related material: less than 1%
[3]
  Peak area at time 0: 0
  Peak area at time 90 min: 59
CYP3A4
  metabolite formation by recombinant CYP3A4: mainly produced by CYP3A4
CYP3A5
  metabolite formation by recombinant CYP3A5: not CYP3A5

## CCC(C)n1ncn(-c2ccc(N3CCN(c4ccc(OCC5COC(Cn6cncn6)(c6ccc(Cl)cc6Cl)O5)cc4)CC3)cc2)c1=O (stereo not shown) [itraconazole]
Microsomal CYP enzymes
  effect of inhibitor on MPZS formation from MPZ: clearly inhibited

## Cn1cc[nH]c1=S [methimazole]
Microsomal FMOs
  effect of FMO inhibitor on MPZA formation in HLM: not inhibited

## C=C[C@H]1C[N@@]2CC[C@H]1C[C@@H]2[C@@H](O)c1ccnc2ccc(OC)cc12 [quinidine]
Microsomal CYP enzymes
  effect of inhibitor on MPZH formation from MPZ (peak area ratio, qualitative): inhibited
